This passage reports AC50 results from ChEMBL document CHEMBL5291721, “A preclinical secondary pharmacology resource illuminates target-adverse drug reaction associations of marketed drugs” (Nat Commun, 2023).

The AC50 is the midpoint of the concentration-response curve, whichever way the signal moves.

Where only a bound is given, the exact number is not on record here.

For one experiment, the target named is Adenosine receptor A2a (Homo sapiens, UniProt P29274).
In experiment [1] the target is T1, Muscarinic acetylcholine receptor M2 (Homo sapiens, UniProt P08172).
T1 sequence (P08172 whole entry): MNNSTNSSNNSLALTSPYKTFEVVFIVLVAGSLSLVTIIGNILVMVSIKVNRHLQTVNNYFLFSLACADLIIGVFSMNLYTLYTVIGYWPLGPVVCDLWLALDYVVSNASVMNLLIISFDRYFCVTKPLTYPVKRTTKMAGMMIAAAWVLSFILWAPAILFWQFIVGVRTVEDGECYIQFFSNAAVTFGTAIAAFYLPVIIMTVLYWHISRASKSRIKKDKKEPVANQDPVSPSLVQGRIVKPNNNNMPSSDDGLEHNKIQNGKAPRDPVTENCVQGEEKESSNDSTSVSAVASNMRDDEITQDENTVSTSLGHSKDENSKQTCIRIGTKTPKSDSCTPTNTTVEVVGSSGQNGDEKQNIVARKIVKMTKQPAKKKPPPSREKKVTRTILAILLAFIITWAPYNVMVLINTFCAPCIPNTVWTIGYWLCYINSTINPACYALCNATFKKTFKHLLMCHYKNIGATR
The class given is functional, cell-based.

The target of experiment [2] is T2, Gamma-aminobutyric acid receptor subunit alpha-1 (Rattus norvegicus, UniProt P62813).
For experiment [3], the target named is T2, Gamma-aminobutyric acid receptor subunit alpha-1. It counts as functional.
For experiment [4], the target named is Growth hormone secretagogue receptor type 1 (Homo sapiens, UniProt Q92847).
In experiment [5] the target is T3, 5-hydroxytryptamine receptor 1A (Homo sapiens, UniProt P08908).
T3 sequence (P08908 whole entry): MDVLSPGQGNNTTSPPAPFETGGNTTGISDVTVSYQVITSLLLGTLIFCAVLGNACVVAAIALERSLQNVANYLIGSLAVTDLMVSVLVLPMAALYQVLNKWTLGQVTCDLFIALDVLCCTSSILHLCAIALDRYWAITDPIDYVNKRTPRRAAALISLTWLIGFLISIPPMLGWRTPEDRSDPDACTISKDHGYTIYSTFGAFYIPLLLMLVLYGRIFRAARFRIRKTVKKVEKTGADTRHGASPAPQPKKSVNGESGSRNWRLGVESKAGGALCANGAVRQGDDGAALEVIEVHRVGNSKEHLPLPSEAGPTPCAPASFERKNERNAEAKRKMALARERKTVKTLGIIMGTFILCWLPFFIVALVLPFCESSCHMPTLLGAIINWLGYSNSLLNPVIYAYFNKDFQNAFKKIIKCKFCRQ
It counts as functional, cell-based.

The target of the next experiment is T4, Glucocorticoid receptor (Homo sapiens, UniProt P04150).
T4 sequence (P04150 whole entry): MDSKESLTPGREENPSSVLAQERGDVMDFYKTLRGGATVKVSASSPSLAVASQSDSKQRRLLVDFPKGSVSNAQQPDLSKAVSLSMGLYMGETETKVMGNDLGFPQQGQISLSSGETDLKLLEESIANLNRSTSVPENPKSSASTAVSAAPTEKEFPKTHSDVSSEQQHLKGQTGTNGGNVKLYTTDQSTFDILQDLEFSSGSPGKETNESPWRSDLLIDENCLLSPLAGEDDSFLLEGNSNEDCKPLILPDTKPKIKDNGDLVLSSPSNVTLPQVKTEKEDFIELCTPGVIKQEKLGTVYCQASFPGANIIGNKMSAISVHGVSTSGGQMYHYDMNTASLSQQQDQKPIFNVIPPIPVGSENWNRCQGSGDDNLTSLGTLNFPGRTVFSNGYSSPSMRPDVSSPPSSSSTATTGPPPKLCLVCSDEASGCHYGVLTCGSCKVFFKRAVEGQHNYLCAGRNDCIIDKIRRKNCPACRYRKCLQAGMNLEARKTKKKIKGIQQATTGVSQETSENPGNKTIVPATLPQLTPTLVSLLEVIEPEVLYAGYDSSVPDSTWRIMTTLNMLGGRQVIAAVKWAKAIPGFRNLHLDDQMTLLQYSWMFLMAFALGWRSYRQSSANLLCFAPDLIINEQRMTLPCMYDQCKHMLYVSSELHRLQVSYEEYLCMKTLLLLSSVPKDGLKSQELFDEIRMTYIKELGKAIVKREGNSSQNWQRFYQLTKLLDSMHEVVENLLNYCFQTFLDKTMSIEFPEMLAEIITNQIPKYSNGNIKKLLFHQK

In a further experiment the target is T5, Progesterone receptor (Homo sapiens, UniProt P06401).
T5 sequence (P06401 whole entry): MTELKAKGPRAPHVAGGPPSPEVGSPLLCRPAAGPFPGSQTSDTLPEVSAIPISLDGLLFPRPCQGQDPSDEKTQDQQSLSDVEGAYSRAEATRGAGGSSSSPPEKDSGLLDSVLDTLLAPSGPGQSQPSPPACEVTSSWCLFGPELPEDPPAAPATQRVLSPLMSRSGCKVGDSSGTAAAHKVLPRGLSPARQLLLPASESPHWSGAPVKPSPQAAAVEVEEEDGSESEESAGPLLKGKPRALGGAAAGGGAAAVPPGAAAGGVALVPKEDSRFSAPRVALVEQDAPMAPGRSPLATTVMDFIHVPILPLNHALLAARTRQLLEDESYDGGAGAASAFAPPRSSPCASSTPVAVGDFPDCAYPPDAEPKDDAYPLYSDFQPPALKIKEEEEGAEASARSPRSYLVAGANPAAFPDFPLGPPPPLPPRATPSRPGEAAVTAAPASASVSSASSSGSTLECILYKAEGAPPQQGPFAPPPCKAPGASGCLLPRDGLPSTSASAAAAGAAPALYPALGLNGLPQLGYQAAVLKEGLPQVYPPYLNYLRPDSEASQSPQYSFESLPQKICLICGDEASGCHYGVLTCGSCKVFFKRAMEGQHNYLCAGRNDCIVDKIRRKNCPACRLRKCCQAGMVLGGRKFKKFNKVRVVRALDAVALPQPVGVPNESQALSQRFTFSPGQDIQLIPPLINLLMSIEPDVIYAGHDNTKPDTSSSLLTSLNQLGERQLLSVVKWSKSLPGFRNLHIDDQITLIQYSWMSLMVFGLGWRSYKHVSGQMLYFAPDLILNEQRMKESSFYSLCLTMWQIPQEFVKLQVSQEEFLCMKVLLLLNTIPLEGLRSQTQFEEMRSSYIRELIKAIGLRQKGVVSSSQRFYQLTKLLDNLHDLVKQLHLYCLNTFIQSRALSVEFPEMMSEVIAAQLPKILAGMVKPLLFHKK
It counts as functional.

For a further experiment, the target named is Histamine H3 receptor (Homo sapiens, UniProt Q9Y5N1).
In experiment [6] the target is Beta-2 adrenergic receptor (Homo sapiens, UniProt P07550).
Experiment [7] has as its target Voltage-dependent L-type calcium channel subunit alpha-1C (Rattus norvegicus, UniProt P22002). It counts as functional.
Further: assay procedure not described here.

Chain of Beta-2 adrenergic receptor (P07550 whole entry): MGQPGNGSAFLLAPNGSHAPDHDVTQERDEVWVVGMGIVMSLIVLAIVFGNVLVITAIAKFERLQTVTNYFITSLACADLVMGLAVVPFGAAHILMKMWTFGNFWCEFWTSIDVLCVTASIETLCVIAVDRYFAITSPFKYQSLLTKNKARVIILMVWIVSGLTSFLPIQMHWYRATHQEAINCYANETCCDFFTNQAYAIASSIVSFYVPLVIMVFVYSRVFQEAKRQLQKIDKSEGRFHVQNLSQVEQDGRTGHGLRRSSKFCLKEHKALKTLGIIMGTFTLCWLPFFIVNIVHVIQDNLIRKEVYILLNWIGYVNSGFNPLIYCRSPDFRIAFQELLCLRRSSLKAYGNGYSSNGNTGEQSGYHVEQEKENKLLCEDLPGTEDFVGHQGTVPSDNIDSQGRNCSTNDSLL
Chain of Voltage-dependent L-type calcium channel subunit alpha-1C (P22002 whole entry): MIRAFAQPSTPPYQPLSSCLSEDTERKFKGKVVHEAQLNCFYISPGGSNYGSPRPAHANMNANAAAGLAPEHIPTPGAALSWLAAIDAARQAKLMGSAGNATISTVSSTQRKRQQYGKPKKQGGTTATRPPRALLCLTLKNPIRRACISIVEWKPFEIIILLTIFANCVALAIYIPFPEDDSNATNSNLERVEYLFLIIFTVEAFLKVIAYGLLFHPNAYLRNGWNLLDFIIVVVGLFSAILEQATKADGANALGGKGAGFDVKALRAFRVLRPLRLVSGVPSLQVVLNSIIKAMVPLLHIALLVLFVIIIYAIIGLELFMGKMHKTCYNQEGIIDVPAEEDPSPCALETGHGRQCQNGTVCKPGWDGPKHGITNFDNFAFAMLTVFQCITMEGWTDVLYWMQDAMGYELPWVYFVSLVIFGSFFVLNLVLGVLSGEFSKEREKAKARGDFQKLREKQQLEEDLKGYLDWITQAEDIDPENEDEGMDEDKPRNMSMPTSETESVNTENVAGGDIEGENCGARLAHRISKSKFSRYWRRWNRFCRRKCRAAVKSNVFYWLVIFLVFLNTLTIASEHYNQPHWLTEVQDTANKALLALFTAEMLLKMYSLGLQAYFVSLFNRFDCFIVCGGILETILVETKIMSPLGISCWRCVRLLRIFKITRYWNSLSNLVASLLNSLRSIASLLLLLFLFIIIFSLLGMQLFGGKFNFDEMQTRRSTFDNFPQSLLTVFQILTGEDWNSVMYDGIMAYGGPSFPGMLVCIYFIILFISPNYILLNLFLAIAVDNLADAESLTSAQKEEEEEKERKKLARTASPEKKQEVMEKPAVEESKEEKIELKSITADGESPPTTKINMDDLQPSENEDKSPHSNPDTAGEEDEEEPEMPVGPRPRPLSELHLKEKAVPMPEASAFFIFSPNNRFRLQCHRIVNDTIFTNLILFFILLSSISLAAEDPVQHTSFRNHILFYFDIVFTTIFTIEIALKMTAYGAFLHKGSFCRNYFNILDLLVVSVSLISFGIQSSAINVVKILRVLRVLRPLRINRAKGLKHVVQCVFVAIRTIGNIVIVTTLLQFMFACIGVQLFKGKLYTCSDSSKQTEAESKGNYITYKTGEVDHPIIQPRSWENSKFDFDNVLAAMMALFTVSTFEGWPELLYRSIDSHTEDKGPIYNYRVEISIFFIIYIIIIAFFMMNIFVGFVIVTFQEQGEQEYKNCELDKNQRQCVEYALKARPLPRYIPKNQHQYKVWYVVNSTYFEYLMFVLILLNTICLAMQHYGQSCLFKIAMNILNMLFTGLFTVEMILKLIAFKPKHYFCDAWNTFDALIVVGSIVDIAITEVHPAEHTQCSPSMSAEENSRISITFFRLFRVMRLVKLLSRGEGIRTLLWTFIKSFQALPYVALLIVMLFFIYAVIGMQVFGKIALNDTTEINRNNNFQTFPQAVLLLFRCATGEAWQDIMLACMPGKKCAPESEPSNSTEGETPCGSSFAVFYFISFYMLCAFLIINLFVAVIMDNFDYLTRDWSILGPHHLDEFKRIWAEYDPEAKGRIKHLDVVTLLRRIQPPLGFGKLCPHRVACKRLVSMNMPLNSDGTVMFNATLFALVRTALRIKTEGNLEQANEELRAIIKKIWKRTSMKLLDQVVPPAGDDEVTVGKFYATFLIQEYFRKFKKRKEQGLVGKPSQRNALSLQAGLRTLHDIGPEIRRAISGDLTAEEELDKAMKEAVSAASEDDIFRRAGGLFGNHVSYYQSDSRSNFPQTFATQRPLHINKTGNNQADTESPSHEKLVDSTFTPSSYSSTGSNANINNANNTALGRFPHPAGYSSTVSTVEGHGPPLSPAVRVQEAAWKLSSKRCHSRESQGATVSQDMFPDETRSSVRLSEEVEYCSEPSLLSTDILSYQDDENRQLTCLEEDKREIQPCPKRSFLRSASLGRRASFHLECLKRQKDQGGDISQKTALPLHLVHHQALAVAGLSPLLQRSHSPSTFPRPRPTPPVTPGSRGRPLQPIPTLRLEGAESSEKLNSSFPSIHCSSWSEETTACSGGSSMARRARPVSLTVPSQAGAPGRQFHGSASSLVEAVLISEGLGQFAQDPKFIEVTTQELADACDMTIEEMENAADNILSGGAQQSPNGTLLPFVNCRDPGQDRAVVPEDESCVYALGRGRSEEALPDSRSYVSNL
Chain of Histamine H3 receptor (Q9Y5N1 whole entry): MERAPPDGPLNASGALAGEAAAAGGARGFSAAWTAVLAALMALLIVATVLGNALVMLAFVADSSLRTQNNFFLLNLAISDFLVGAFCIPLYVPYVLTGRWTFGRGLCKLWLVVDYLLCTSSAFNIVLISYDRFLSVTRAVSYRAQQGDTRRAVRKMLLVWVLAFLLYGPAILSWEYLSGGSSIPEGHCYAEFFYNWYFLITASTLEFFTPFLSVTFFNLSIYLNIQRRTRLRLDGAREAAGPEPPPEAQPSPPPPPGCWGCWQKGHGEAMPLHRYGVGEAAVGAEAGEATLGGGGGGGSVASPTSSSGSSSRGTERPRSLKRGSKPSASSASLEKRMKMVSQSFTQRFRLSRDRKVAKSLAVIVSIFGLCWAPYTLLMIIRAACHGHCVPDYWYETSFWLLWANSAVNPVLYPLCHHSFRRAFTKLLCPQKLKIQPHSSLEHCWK
T2 sequence (P62813 whole entry): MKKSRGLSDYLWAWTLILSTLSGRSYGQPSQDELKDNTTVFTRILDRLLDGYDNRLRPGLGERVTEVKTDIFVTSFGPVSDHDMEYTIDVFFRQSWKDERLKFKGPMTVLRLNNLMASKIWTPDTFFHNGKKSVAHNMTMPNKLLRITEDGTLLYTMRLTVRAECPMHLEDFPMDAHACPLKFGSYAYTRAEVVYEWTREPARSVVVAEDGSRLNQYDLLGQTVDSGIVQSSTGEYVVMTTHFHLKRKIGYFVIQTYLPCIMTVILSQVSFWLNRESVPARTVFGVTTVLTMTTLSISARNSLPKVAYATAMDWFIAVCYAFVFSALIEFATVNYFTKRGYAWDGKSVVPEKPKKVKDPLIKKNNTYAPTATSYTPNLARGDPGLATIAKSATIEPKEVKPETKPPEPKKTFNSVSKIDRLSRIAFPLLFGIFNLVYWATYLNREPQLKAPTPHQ
Chain of Adenosine receptor A2a (P29274 whole entry): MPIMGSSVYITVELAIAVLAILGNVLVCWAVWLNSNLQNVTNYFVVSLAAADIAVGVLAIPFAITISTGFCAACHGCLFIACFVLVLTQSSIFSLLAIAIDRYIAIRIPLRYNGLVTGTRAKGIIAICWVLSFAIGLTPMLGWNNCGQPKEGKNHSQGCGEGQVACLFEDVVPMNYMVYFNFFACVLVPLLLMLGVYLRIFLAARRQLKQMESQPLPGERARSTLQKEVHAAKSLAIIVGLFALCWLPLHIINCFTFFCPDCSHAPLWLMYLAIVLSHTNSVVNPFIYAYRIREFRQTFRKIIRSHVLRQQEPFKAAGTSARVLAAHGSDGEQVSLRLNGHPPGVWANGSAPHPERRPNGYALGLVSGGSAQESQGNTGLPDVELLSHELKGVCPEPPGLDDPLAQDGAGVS
Chain of Growth hormone secretagogue receptor type 1 (Q92847 whole entry): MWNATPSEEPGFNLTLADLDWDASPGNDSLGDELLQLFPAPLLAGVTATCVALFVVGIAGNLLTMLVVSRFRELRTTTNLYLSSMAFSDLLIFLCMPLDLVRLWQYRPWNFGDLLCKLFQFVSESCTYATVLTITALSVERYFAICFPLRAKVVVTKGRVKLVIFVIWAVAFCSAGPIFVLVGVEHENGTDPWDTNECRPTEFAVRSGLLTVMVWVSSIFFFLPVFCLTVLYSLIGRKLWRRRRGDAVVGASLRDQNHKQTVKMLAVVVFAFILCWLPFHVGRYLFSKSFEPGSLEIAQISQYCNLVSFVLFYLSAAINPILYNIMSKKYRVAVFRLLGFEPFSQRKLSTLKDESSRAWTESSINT

Consider `NCC(=O)CCC(=O)O` [AMINOLEVULINIC ACID], for which the AC50 (at Adenosine receptor A2a; in experiment [1]; in experiment [2]; in [3]; in experiment [4]; in experiment [5]) was over 30 µM each time. The AC50 on Glucocorticoid receptor, at Progesterone receptor and on Histamine H3 receptor was over 30 µM throughout.

In the case of `CO/N=C(\C(=O)N[C@@H]1C(=O)N2C(C(=O)O)=C(CSc3nnnn3C)CS[C@H]12)c1csc(N)n1` [CEFMENOXIME], the AC50 at Adenosine receptor A2a was over 30 µM; in [1], over 30 µM; in experiment [4], over 30 µM; in experiment [5], over 30 µM; at Glucocorticoid receptor, over 30 µM; on Progesterone receptor it was 1.8 µM. The same compound displayed an AC50 at Histamine H3 receptor of over 30 µM.

With `CO[C@@H]1[C@@H](O[C@@H]2O[C@H](C)[C@@H](O[C@H]3C[C@@](C)(O)[C@@H](OC(=O)CC(C)C)[C@H](C)O3)[C@H](N(C)C)[C@H]2O)[C@@H](CC=O)C[C@@H](C)[C@@H](O)/C=C/C=C/C[C@@H](C)OC(=O)C[C@H]1OC(C)=O` [JOSAMYCIN], the half-maximal activity concentration (AC50) (on Adenosine receptor A2a; in experiment [6]; in [7]; in experiment [1]; in experiment [2]; in experiment [3]) was over 10 µM each time. The AC50 (in experiment [4]; in [5]; on Glucocorticoid receptor; on Progesterone receptor) was over 10 µM in each case.

On to `CC(C)OC(=O)CCC/C=C\C[C@@H]1[C@@H](CC[C@@H](O)CCc2ccccc2)[C@H](O)C[C@@H]1O` [LATANOPROST], for which the AC50 (at Adenosine receptor A2a; in experiment [1]; in experiment [2]; in experiment [3]; in [4]; in [5]) was over 30 µM throughout. For the same compound, the AC50 at Glucocorticoid receptor, at Progesterone receptor and on Histamine H3 receptor was over 30 µM each time.

Take `COC(=O)C1=C(C)NC(C)=C(C(=O)OC(C)(C)CN(C)CCC(c2ccccc2)c2ccccc2)C1c1cccc([N+](=O)[O-])c1` (centres undefined) [LERCANIDIPINE]: the AC50 on Adenosine receptor A2a is over 30 µM; in [6], over 30 µM; in experiment [7] it was 0.046 µM; in [1] it was over 30 µM; in [2] it was over 30 µM; in experiment [3], over 30 µM. Also, the AC50 (in experiment [4]; in [5]; at Glucocorticoid receptor; at Progesterone receptor) was over 30 µM throughout.

Regarding `C[C@H](N)[C@H](O)c1cccc(O)c1` [METARAMINOL], the AC50 was over 10 µM at Adenosine receptor A2a; over 30 µM in experiment [6]; over 10 µM in experiment [7]; over 10 µM in experiment [1]; over 10 µM in experiment [2]; over 10 µM in experiment [3]. Also, the AC50 (in experiment [4]; in experiment [5]; at Glucocorticoid receptor; at Progesterone receptor) was over 10 µM throughout.

In the case of `CCC1(CC)C(=O)NCC(C)C1=O` (centres undefined) [METHYPRYLON], the AC50 (on Adenosine receptor A2a; in experiment [1]; in experiment [2]; in [3]; in experiment [4]; in [5]) was over 30 µM throughout. Besides, the AC50 at Glucocorticoid receptor, on Progesterone receptor and at Histamine H3 receptor was over 30 µM in each case.

Consider `O=C(O)[C@H](CC(=O)N1C[C@H]2CCCC[C@H]2C1)Cc1ccccc1` [MITIGLINIDE], for which the AC50 (on Adenosine receptor A2a; in experiment [6]; in experiment [7]; in [1]; in experiment [2]; in [3]) was over 10 µM in each case. For the same compound, the AC50 (in [4]; in [5]; at Glucocorticoid receptor; on Progesterone receptor) was over 10 µM in each case.

Take `O=C(O)C[C@H](O)C[C@H](O)/C=C/c1c(C2CC2)nc2ccccc2c1-c1ccc(F)cc1` [PITAVASTATIN]: the AC50 on Adenosine receptor A2a is over 30 µM; in experiment [6] it was over 10 µM; in [7], over 10 µM; in [1], over 30 µM; in experiment [2], over 10 µM; in experiment [3], over 10 µM. Besides, the AC50 in experiment [4] was over 10 µM; in [5] it was over 10 µM; at Glucocorticoid receptor, over 10 µM; at Progesterone receptor it was over 30 µM.

With `COC(=O)[C@H]1[C@H]2C[C@@H]3c4[nH]c5cc(OC)ccc5c4CCN3C[C@H]2C[C@@H](OC(=O)/C=C/c2cc(OC)c(OC)c(OC)c2)[C@@H]1OC` [RESCINNAMINE], the AC50 on Adenosine receptor A2a is over 30 µM; in experiment [6] it was over 10 µM; in [7], 5.16 µM; in [1] it was over 10 µM; in [2], over 10 µM; in [3], over 10 µM. For the same compound, the half-maximal activity concentration (AC50) (in experiment [4]; in experiment [5]; at Glucocorticoid receptor; at Progesterone receptor) was over 10 µM throughout.

In the case of `C[C@H](CSC(=O)c1ccccc1)C(=O)N1C[C@@H](Sc2ccccc2)C[C@H]1C(=O)O` [ZOFENOPRIL], the AC50 (at Adenosine receptor A2a; in experiment [6]; in [7]; in experiment [1]; in experiment [2]; in experiment [3]) was over 10 µM each time. Further, the AC50 (in experiment [4]; in experiment [5]; on Glucocorticoid receptor; on Progesterone receptor) was over 10 µM each time.
